US20260242390A1, “TOTAL SYNTHESES OF PORTIMINE A AND ANALOGUES THEREOF AS SMALL MOLECULE MODULATORS OF NMD3” (priority 2023, published 2026)
Entries after “also recorded” stand apart in the source; their conditions may differ.

Molecular target: T1, NMD3 (Homo sapiens, UniProt Q96D46)
T1 construct: endogenous in cells
T1 sequence (Q96D46 1-503): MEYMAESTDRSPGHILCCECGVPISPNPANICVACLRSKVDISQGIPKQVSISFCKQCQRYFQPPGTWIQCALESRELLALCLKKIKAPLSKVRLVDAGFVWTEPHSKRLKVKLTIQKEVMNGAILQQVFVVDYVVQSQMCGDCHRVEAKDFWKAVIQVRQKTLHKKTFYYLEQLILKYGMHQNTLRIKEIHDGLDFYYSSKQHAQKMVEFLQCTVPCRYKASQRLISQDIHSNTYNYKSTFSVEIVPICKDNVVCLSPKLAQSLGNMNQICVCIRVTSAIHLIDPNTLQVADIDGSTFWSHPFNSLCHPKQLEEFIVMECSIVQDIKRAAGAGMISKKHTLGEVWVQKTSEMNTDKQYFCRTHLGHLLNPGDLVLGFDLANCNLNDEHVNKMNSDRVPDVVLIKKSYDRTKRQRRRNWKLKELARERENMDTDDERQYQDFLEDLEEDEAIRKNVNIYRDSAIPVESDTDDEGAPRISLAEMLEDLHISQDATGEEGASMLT
Experiment: Chemo-precipitation / photoaffinity labeling of NMD3
Type: binding
Conditions: for competition of PA-DA labeling of endogenous NMD3 / labeling of endogenous NMD3 by probe: Jurkat and HCC1806 cells; for competition of PA-DA labeling of endogenous NMD3: PA-DA 0.5 uM, competitor 5 uM; for labeling of endogenous NMD3 by probe: probe 0.5 uM, UV irradiated
Method: FIG. 4. Validation of NMD3 as target of Portimine A by Chemo-precipitation (ChP). Portimine A mouse pharmacokinetic properties and fast acting in vitro cell-based target engagement properties based on compound wash-out. (A) Pharmacokinetic studies of mouse intraperitoneal (i.p.) and oral (p.o.) administration for portimine (n=3). […] Impact of PA [0.3 or 1 mg/kg intraperitoneally] on MC38 tumor growth in WT mice (n=6). (C) Kaplan-Myer survival curve of WT MC38 tumor-bearing mice (n=6) after treatment with PA as described in (D). Mice were euthanized when tumor area exceeded 2000 mm^3. Statistical analysis was performed using ANOVA analysis followed by multiple comparisons test, * p≤0.05. Treatment condition: Jurkat (60 M per condition); PA-DA/ePA-DA concentration: 0.5 uM, PA or ePA: 5 uM; Incubate with probe with or without competitors (PA, ePA) for 30 min; UV irradiated for 20 min. (0.5 uM PA-DA add a no-UV condition); Standard pulldown & biotin-enrichment and western blot analysis (Elute condition: 2× sample buffer+500 uM biotin, boil for 20 mins); Primary antibody NMD3 (ProteinTech, 1:150), Actin (BioRad, 1:10000).
FIG. 5. […] (I, J) Confirmation of PA-DA engagement of NMD3 in Jurkat and HCC1806 cells. […] Treatment condition: Jurkat (5M per well). Portimine A concentration: 2 nM-1000 nM; In total treat cell for 12 hours.
• 1) Portimine A and its functional analogs show stereo-selective acute toxicity in cancer cells (FIG. 1). […] (B) Structure of portimine related analogs: phenyl-portimine A (Ph-PA, 36) and epi-portimine A (ePA, 38). Structure of fully functionalized portimine A-based epimeric probe pair: portimine A-diazirine-alkyne (PA-DA, 35-2) and epi-portimine A-diazirine-alkyne (ePA-DA, 35-1). (C) Cell viability analysis of portimine A and analogs. Jurkat cells were treated with increasing concentrations of portimine A and analogs for 24 hours. All presented data as mean of biological replicated experiments (n=3). […] Jurkat cells were treated with portimine A or analogs for 12 hours at 10 nM. […] Structurally related negative control ePA and PB are non-toxic in all cell types in the current concentrate range. PBMCs (25k per well), Jurkat (10k per well). […] Cell cycle analysis in Jurkat cells (FIG. 2). Jurkat cells were treated with 10 nM of indicated compounds for 24 hours, and propodium iodide was used to identify different stages of cells by flow cytometry. […] (A) PA and Ph-PA show less toxic to healthy PBMCs compared to Jurkat cells. […] (B) Immunoblot of caspase-3 in Jurkat and PBMCs with indicated conditions. […] (A) Pharmacokinetic studies of mouse intraperitoneal (i.p.) and oral (p.o.) administration for portimine (n=3). […] Impact of PA [0.3 or 1 mg/kg intraperitoneally] on MC38 tumor growth in WT mice (n=6). (C) Kaplan-Myer survival curve of WT MC38 tumor-bearing mice (n=6) after treatment with PA as described in (D). Mice were euthanized when tumor area exceeded 2000 mm^3. Statistical analysis was performed using ANOVA analysis followed by multiple comparisons test, * p≤0.05. Treatment condition: Jurkat (60 M per condition); PA-DA/ePA-DA concentration: 0.5 uM, PA or ePA: 5 uM; Incubate with probe with or without competitors (PA, ePA) for 30 min; UV irradiated for 20 min. (0.5 uM PA-DA add a no-UV condition), Standard pulldown & biotin-enrichment and western blot analysis (Elute condition: 2× sample buffer+500 uM biotin, boil for 20 mins); Primary antibody NMD3 (ProteinTech, 1:150), Actin (BioRad, 1:10000). […] Chemical proteomic profiling with PA-DA in Jurkat cells (A, B, C, G) and HCC1806 cells (D, E, F, H) show NMD3 is the primary target candidate of portimine A. Volcano plot in panels A and D show protein competition in cells treated with active photoaffinity probe PA-DA (500 nM) and DMSO or the active competitor portimine A (PA, […]), dotted lines indicate threshold of fold change <4, p-value>0.05. […] (I, J) Confirmation of PA-DA engagement of NMD3 in Jurkat and HCC1806 cells. […] Treatment condition: Jurkat (5M per well). […]

In the case of `C=CC1=C[C@@H]2[C@@H]3O[C@]4(CC[C@H](O4)C(C)C[C@@H](O)C3=O)CC(O)C3=NCC[C@@]32CC1` (stereo partly shown) [PA, portimine A], the “competition of PA-DA labeling of endogenous NMD3” value is reported as “blocked”, the “binding to NMD3 (target validation)” value (endogenous NMD3, Jurkat, pulldown and western blot) is reported as “selectively binds; also recorded: confirmed as a target” and the “nature of the interaction with NMD3” value (no-UV control) is reported as “non-covalent”.
With `C#CCCC1(CCNC(=O)c2ccc(C3=C[C@@H]4[C@@H]5O[C@]6(CC[C@H](O6)C(C)C[C@@H](O)C5=O)CC(O)C5=NCC[C@@]54CC3)cc2)N=N1` (stereo partly shown) [PA-DA, portimine A-diazirine-alkyne] the “binding to recombinantly overexpressed NMD3 in cells” value was “not observed” and the “labeling of endogenous NMD3 by probe” value was “UV-dependent labeling”.
For `C#CCCC1(CCNC(=O)c2ccc(C3=C[C@@H]4[C@@H]5O[C@]6(CC[C@H](O6)C(C)C[C@@H](O)C5=O)C[C@@H](O)C5=NCC[C@@]54CC3)cc2)N=N1` (stereo partly drawn) [ePA-DA, epi-portimine A-diazirine-alkyne], the “labeling of endogenous NMD3 by probe” value was “not substantially labeled”.
For `C=CC1=C[C@@H]2[C@@H]3O[C@]4(CC[C@H](O4)C(C)C[C@@H](O)C3=O)C[C@@H](O)C3=NCC[C@@]32CC1` (stereo partly drawn) [ePA, epi-portimine A], the “competition of PA-DA labeling of endogenous NMD3” value was “not”.
